# Measured values: ChEMBL document CHEMBL1131220, “Isosteric analogues of nicotinamide adenine dinucleotide derived from furanfurin, thiophenfurin, and selenophenfurin as mammalian inosine monophosphate dehydrogenase (type I and II) inhibitors” (J Med Chem, 1998)
# Tests used:
# [1] = molecular target: T1, Inosine-5'-monophosphate dehydrogenase 1 (Homo sapiens, UniProt P20839); experiment: The compound was tested for the inhibition towards IMP(Inosine 5'-monophosphate) substrate of Inosine-5'-monophosphate dehydrogenase 1
# T1 sequence (P20839 whole entry): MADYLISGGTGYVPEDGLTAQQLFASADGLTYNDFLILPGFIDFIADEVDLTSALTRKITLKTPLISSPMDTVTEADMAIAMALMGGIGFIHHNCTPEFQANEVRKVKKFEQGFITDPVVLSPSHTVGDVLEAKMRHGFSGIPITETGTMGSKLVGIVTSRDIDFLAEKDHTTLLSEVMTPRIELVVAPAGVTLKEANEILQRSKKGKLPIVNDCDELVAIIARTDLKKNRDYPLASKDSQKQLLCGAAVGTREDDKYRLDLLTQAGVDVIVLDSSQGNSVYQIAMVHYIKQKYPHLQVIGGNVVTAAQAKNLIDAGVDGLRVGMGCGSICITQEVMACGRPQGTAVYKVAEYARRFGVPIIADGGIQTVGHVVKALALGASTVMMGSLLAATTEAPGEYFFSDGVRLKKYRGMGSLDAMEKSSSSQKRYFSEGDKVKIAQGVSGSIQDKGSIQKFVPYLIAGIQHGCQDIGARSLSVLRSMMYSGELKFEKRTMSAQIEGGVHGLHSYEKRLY
# [2] = molecular target: T1, Inosine-5'-monophosphate dehydrogenase 1; experiment: The compound was tested for the inhibition towards […] (Nicotinamide adenine dinucleotide) substrate of Inosine-5'-monophosphate dehydrogenase 1
# [3] = molecular target: T2, Inosine-5'-monophosphate dehydrogenase 2 (Homo sapiens, UniProt P12268); experiment: The compound was tested for the inhibition towards IMP(Inosine 5'-monophosphate) substrate of Inosine-5'-monophosphate dehydrogenase 2
# [4] = molecular target: T2, Inosine-5'-monophosphate dehydrogenase 2; experiment: The compound was tested for the inhibition towards […] (Nicotinamide adenine dinucleotide) substrate of Inosine-5'-monophosphate dehydrogenase 2
Ki [1] [nM],Ki [2] [nM],Ki [3] [nM],Ki [4] [nM],Compound
38000,135000,57900,99100,NC(=O)c1coc([C@@H]2O[C@H](COP(=O)(O)OP(=O)(O)OC[C@H]3O[C@@H](n4cnc5c(N)ncnc54)[C@H](O)[C@@H]3O)[C@@H](O)[C@H]2O)c1
370,340,320,340,NC(=O)c1csc([C@@H]2O[C@H](COP(=O)(O)OP(=O)(O)OC[C@H]3O[C@@H](n4cnc5c(N)ncnc54)[C@H](O)[C@@H]3O)[C@@H](O)[C@H]2O)c1
33,62,21,26,NC(=O)c1c[se]c([C@@H]2O[C@H](COP(=O)(O)OP(=O)(O)OC[C@H]3O[C@@H](n4cnc5c(N)ncnc54)[C@H](O)[C@@H]3O)[C@@H](O)[C@H]2O)n1

Compound,Ki [1] [nM],Ki [2] [nM],Ki [3] [nM],Ki [4] [nM]
NC(=O)c1c[se]c([C@@H]2O[C@H](COP(=O)(O)OP(=O)(O)OC[C@H]3O[C@@H](n4cnc5c(N)ncnc54)[C@H](O)[C@@H]3O)[C@@H](O)[C@H]2O)c1,580,260,1100,270
